Data from patent publication US4145554A, “3-Nitropyrazole derivatives” (Eli Lilly and Company, priority 1977, dated 1979).
In brackets after ≈: the same amount, converted by molar mass. Several values for one entry are separate records, joined by “and”; a condition that tells them apart may be missing. Equal entries are not always repeated. Where two headings read alike, the source gives them in different places.

Key:
Escherichia coli [1] = assay: in vitro tube dilution test (MIC); type: cell-based; conditions: tube dilution, read-out: MIC
In short: (§1)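 Standard tube dilution test; MIC reported as micrograms of compound per milliliter.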

Mycoplasma gallisepticum = assay: in vitro tube dilution test (MIC); type: cell-based; conditions: Mycoplasmoides gallisepticum; Mycoplasma galliseptioum, tube dilution; read-out: MIC
In short: as §1

Mycoplasma synoviae = assay: in vitro tube dilution test (MIC); type: cell-based; conditions: Mycoplasmopsis synoviae, Mycoplasma synoviae
In short: as §1

Pasteurella multocida = assay: in vitro tube dilution test (MIC); type: cell-based; conditions: tube dilution, read-out: MIC
In short: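 Standard tube dilution test; MIC is the lowest compound concentration controlling growth, given in μg/mL.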

Vibrio coli = assay: in vitro tube dilution test (MIC); type: cell-based; conditions: Campylobacter coli
Treponema hyodysenteriae = assay: in vitro tube dilution test (MIC); type: cell-based; conditions: Brachyspira hyodysenteriae
Streptococcus sp. = assay: in vitro tube dilution test (MIC); type: cell-based
[2] = system: Streptococcus sp. (group E); assay: in vitro tube dilution test (MIC); type: cell-based
Leptospira (5 serotypes) = assay: in vitro tube dilution test (MIC); type: cell-based
Clostridium perfringens = assay: microbe, parasite or virus in culture; type: cell-based
Escherichia coli [3] = assay: agar dilution technique (MIC); type: cell-based
Proteus sp. = assay: agar dilution technique (MIC); type: cell-based
Staphylococcus aureus = assay: agar dilution technique (MIC); type: cell-based
[4] = system: Streptococcus sp. (group D); assay: agar dilution technique (MIC); type: cell-based
Diplococcus pneumoniae = assay: agar dilution technique (MIC); type: cell-based; conditions: Streptococcus pneumoniae
Mima polymorpha = assay: agar dilution technique (MIC); type: cell-based
Shigella sp. = assay: agar dilution technique (MIC); type: cell-based
Erwinia amylovora = assay: Fire blight of pear, in vivo greenhouse test
Description: An in vivo test was conducted against the fire blight organism, Erwinia amylovora. Plants infected with E. amylovora were sprayed with aqueous dispersions containing 100 ppm. and 500 ppm. of the test compounds. […] The compounds are identified below by their compound numbers in the above listing.

E. amylovora = assay: Fire blight of field-grown pear trees, natural and induced infections; type: in vivo; conditions: 100 to 800 ppm. aqueous dispersions
Description: Our compound, 1-(2-hydroxyethyl)-3-nitro-4-pyrazolecarboxamide, was also tested against natural and induced infections of E. amylovora on field-grown pear trees.

P. multocida [5] = assay: Mice infected with P. multocida, compound in drinking water; type: in vivo; conditions: 7 days
Description: Some of the 3-nitropyrazoles were also administered to mice infected with P. multocida. Tests were conducted in which the pyrazoles were administered both by injection and in the drinking water.
The table below reports results of tests in which the compound was administered in the water. Groups of 10 standardized white mice were segregated, and each mouse was infected by injecting a broth culture of P. multocida subcutaneously. The administration of the test compounds was begun at the same time the mice were infected by adding a known amount of the test compound to the drinking water of the mice. One group of infected control mice received no treatment. The mice were observed, and the test was concluded at the end of 7 days. The number of mice in each group which survived the P. multocida infection was recorded.

P. multocida [6] = assay: Mice infected with P. multocida, compound injected subcutaneously; type: in vivo; conditions: 2.5 mg./kg. subcutaneous
Description: A second test was conducted in much the same way, except that the 3-nitropyrazole was injected to the treated mice subcutaneously at the same time they were infected with the P. multocida culture.

M. gallisepticum = assay: Mycoplasma gallisepticum in chickens; type: in vivo
Description: A group of broiler type chickens, weighing about 1265 gm., were obtained from a homogeneous source flock. The birds were allocated into 12-bird treatment groups of equal weight. Four treatment groups were used in each of the treatments, including the untreated infected controls; two groups were held as normal controls.
The birds, other than the normal controls, were challenged by administering two 0.2 ml. injections of a freshly thawed M. gallisepticum culture to each bird, one injection in the wing vein and one in the air sac. Immediately after the challenge, four of the treatment groups were treated by injecting 25 mg./kg., intramuscularly, of 1-(2-hydroxyethyl)-3-nitro-4-pyrazolecarboxamide to each chicken. The other four treated groups received the same compound at 2 gm./gal. (about 50 mg./kg./day) in their drinking water for a period of 41/2 days after the challenge was administered.
The birds were held and observed for about 3 weeks. Mortality in the experiment was negligible. At the end of the observation period, the birds were sacrificed and examined for M. gallisepticum lesions of the air sac. A sample of blood from each bird was tested to determine the presence of M. gallisepticum antibodies. […] The final average weights and the air sac lesion counts are shown below.

P. multocida [7] = assay: Pasteurellosis in chickens; type: in vivo; conditions: 100 gm. per ton of feed
P. multocida [8] = assay: Pasteurellosis in turkeys; type: in vivo; conditions: 100 gm./ton
secretion in sow's milk = assay: secretion in sow's milk; design: species or system swine; conditions: in vivo
Salmonella typhosa = assay: agar dilution technique (MIC); conditions: Salmonella enterica

Compound: NC(=O)c1cn(CCO)nc1[N+](=O)[O-] [Compound 32, 1-(2-hydroxyethyl)-3-nitro-4-pyrazolecarboxamide]
- MIC (Escherichia coli [1]): 3.12 µg/mL (≈ 15.6 µM)
- MIC (Mycoplasma gallisepticum): 0.78 µg/mL (≈ 3.9 µM)
- MIC (Mycoplasma synoviae): 50 µg/mL (≈ 250 µM)
- MIC (Pasteurella multocida; Cattle Isolates): < 1.56 µg/mL
- MIC (Pasteurella multocida; Swine Isolate (first line)): > 50 µg/mL
- MIC (Pasteurella multocida; Swine Isolate (second line)): 6.25 µg/mL (≈ 31.2 µM)
- MIC (Pasteurella multocida; Turkey Isolates): > 50 µg/mL
- MIC (Vibrio coli): 6.25 µg/mL (≈ 31.2 µM)
- MIC (Treponema hyodysenteriae): 3.12 µg/mL (≈ 15.6 µM)
- MIC (Streptococcus sp.): 25 µg/mL (≈ 125 µM)
- MIC [2]: 1.56 µg/mL (≈ 7.79 µM)
- MIC (Leptospira (5 serotypes)): > 100 µg/mL
- MIC (Clostridium perfringens): 25 to 50 µg/mL (≈ 125 to 250 µM)
- MIC (Escherichia coli [3]): 8 µg/mL (≈ 40 µM)
- MIC (Proteus sp.): > 128 µg/mL
- MIC (Staphylococcus aureus): 8 to 16 µg/mL (≈ 40 to 79.9 µM)
- MIC [4]: 32 µg/mL (≈ 160 µM)
- MIC (Diplococcus pneumoniae): 2 µg/mL (≈ 9.99 µM)
- MIC (Mima polymorpha): 2 µg/mL (≈ 9.99 µM)
- MIC (Shigella sp.): 16 µg/mL (≈ 79.9 µM)
- Percent Control of fire blight (Erwinia amylovora; 100 ppm.): 50%
- Percent Control of fire blight (Erwinia amylovora; 500 ppm.): 92%
- control of fire blight on field-grown pear trees (E. amylovora): controlled fire blight on the pear trees
- Survival (P. multocida [5]; 0.1 gm./gal. in drinking water): 8/10
- Survival (P. multocida [5]; 0.2 gm./gal. in drinking water): 10/10
- Survival (P. multocida [6]): 8/10
- Air Sac Lesions (M. gallisepticum; 25 mg./kg. (injected)): 41/48
- Avg. Wt. (M. gallisepticum; 25 mg./kg. (injected)): 2093 gm.
- Air Sac Lesions (M. gallisepticum; 2.0 gm./gal. drinking water): 24/47
- Avg. Wt. (M. gallisepticum; 2.0 gm./gal. drinking water): 2188 gm.
- increase of birds' weight (M. gallisepticum; in one case (average, each)): more than 160 gm.
- increase of birds' weight (M. gallisepticum; in the other treatment (average, each)): ~260 gm.
- Mortality (P. multocida [7]): about 12%
- presence of isolable P. multocida in treated birds (P. multocida [7]): about half of the treated birds
- Culture Isolation (P. multocida [7]; individual 8-bird group): 6/8 and 3/8
- Mortality Rate (P. multocida [7]; individual 8-bird group): 2/8 and 0/8
- Culture Isolation, Total (P. multocida [7]; total of two groups): 9/16
- Mortality Rate, Total (P. multocida [7]; total of two groups): 2/16
- Mortality Rate (P. multocida [8]): 20%
- Culture Isolation (P. multocida [8]; about 5 mg./kg./day): 1/5
- Mortality Rate (P. multocida [8]; about 5 mg./kg./day): 1/5
- secretion in sow's milk (secretion in sow's milk): secreted in sow's milk
- MIC (Salmonella typhosa): 2 µg/mL (≈ 9.99 µM)
